Experimental findings from ChEMBL document CHEMBL1201862, “PubChem BioAssay data set” (2004) are described below.

Test systems include 786-0; KM12; SK-MEL-5; A549; SR; UACC-62; DU-145; Hs-578T; MCF7; HL-60; LOX IMVI; RXF 393; NCI/ADR-RES; IGROV-1; SK-MEL-2; SK-OV-3; EKVX; SNB-19; OVCAR-5; T47D.
Assay in all cases: growth of human tumour cells (NCI), 48 h

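Following 48 hours of exposure in 96-well plates, responses at five concentrations were used to interpolate endpoints linearly. GI50 = concentration required for 50% inhibition of growth.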 Calls of active or inactive are those of the source. Rule as the data show it: active = GI50 up to about 1.1 µM and inactive = higher. Some results are limits rather than exact numbers.

`C=C1C(=O)O[C@H]2C[C@@]3(C)[C@H](O)CCC(=C)[C@@H]3[C@@H](OC(C)=O)[C@H]12`: the GI50 is 5.85 µM (inactive) with 786-0; 16.4 µM (inactive) with KM12; 12.1 µM (inactive) with SK-MEL-5; 14.7 µM (inactive) in the experiment on A549; 2.22 µM (inactive) in the experiment on SR; 15.9 µM (inactive) in the experiment on UACC-62. For the same compound, the GI50 is 10.9 µM (inactive) in the experiment on DU-145; 14.3 µM (inactive) in the experiment with Hs-578T; 1.51 µM (inactive) with MCF7; 2.19 µM (inactive) in the experiment on HL-60; 5.43 µM (inactive) with LOX IMVI; 3.56 µM (inactive) with RXF 393. Also, the GI50 was 21.8 µM (inactive) in the experiment on NCI/ADR-RES; 14.1 µM (inactive) with IGROV-1; 15.9 µM (inactive) with SK-MEL-2; 30.2 µM (inactive) in the experiment on SK-OV-3; 15.5 µM (inactive) with EKVX; 12.9 µM (inactive) with SNB-19. In addition, the GI50 in the experiment with OVCAR-5 is 3.27 µM (inactive); in the experiment on T47D it was 4.65 µM (inactive).
Regarding `O=C1OCC2=C1C(c1ccc3c(c1)OCO3)c1cc3c(cc1O2)OCO3` (stereo not drawn), the GI50 is 0.785 µM (active) in the experiment with 786-0; 0.486 µM (active) in the experiment with SK-MEL-5; 0.897 µM (active) in the experiment with A549; 0.19 µM (active) with SR; 0.364 µM (active) in the experiment on UACC-62; 1.64 µM (inactive) in the experiment with DU-145. Moreover, the GI50 in the experiment with Hs-578T was 0.865 µM (active); in the experiment with MCF7, 0.341 µM (active); in the experiment with HL-60, 0.134 µM (active); with LOX IMVI, 0.507 µM (active); in the experiment with RXF 393, 0.828 µM (active); with NCI/ADR-RES it was 0.255 µM (active). Moreover, the GI50 in the experiment with IGROV-1 was 0.537 µM (active); with SK-MEL-2 it was 0.375 µM (active); with SK-OV-3, 0.776 µM (active); with EKVX, 1.72 µM (inactive); with SNB-19 it was 2.1 µM (inactive); in the experiment on OVCAR-5 it was 7.48 µM (inactive). Moreover, in the experiment with T47D, the GI50 was 0.7 µM (active).
Regarding `c1ccc2c(c1)-c1nc3ccccc3cc1C2N1CCOCC1` (stereo not drawn), the GI50 was > 100 µM (inactive) with 786-0; > 100 µM (inactive) with KM12; 82.4 µM (inactive) in the experiment with SK-MEL-5; > 100 µM (inactive) with A549; > 100 µM (inactive) in the experiment on SR; 97.5 µM (inactive) in the experiment with UACC-62. Besides, the GI50 is > 100 µM (inactive) in the experiment with DU-145; 46.6 µM (inactive) with Hs-578T; > 100 µM (inactive) in the experiment with MCF7; 34.5 µM (inactive) in the experiment with HL-60; > 100 µM (inactive) with LOX IMVI; > 100 µM (inactive) in the experiment on RXF 393. For the same compound, the GI50 was 81.3 µM (inactive) in the experiment on NCI/ADR-RES; 79.4 µM (inactive) in the experiment with IGROV-1; > 100 µM (inactive) in the experiment with SK-MEL-2; > 100 µM (inactive) in the experiment on SK-OV-3; 63.1 µM (inactive) with EKVX; > 100 µM (inactive) in the experiment on SNB-19. For the same compound, the GI50 was > 100 µM (inactive) in the experiment with OVCAR-5 and 45.8 µM (inactive) with T47D.
Consider `O=[N+]([O-])c1ccc(C2=NOC(c3ccc(Cl)cc3)N2C23CC4CC(CC(C4)C2)C3)cc1` (stereo not drawn), for which the GI50 with 786-0 is > 100 µM (inactive); in the experiment with KM12 it was > 100 µM (inactive); in the experiment with SK-MEL-5, 53 µM (inactive); in the experiment on A549, 56.9 µM (inactive); with SR it was 67.9 µM (inactive); in the experiment with UACC-62, > 100 µM (inactive). The GI50 is > 100 µM (inactive) with DU-145; 34.9 µM (inactive) in the experiment with Hs-578T; 40.6 µM (inactive) with MCF7; 6.46 µM (inactive) in the experiment on HL-60; > 100 µM (inactive) in the experiment with LOX IMVI; 1.86 µM (inactive) in the experiment with RXF 393. Moreover, the GI50 was > 100 µM (inactive) in the experiment on NCI/ADR-RES; > 100 µM (inactive) in the experiment on IGROV-1; 20.2 µM (inactive) with SK-MEL-2; > 100 µM (inactive) in the experiment on SK-OV-3; > 100 µM (inactive) in the experiment on EKVX; > 100 µM (inactive) in the experiment with SNB-19. Also, the GI50 in the experiment on T47D was 35.2 µM (inactive).
Turning to `COC(=O)CSc1cc(Cl)c(C)cc1S(=O)(=O)Nc1n[nH]c(N)n1`, the GI50 with 786-0, with KM12, in the experiment on SK-MEL-5, in the experiment with A549, with SR and in the experiment with DU-145 was > 10 µM (inactive) throughout. Also, the GI50 in the experiment on Hs-578T, in the experiment on MCF7, in the experiment with HL-60, with LOX IMVI, with RXF 393 and in the experiment on NCI/ADR-RES was > 10 µM (inactive) throughout. Also, the GI50 with IGROV-1, in the experiment with SK-MEL-2, with SK-OV-3, in the experiment with EKVX, with SNB-19 and in the experiment with OVCAR-5 was > 10 µM (inactive) in each case. Also, the GI50 with T47D was > 10 µM (inactive).
As to `CSC(SC)=C(C#N)C(=O)Nc1ccc(Cl)cc1`, the GI50 was 31.7 µM (inactive) in the experiment with 786-0; 68.2 µM (inactive) with KM12; 51.6 µM (inactive) with SK-MEL-5; 31.3 µM (inactive) with A549; 38.1 µM (inactive) with SR; 46 µM (inactive) in the experiment on UACC-62. Besides, the GI50 is 74.6 µM (inactive) in the experiment on DU-145; > 100 µM (inactive) in the experiment with Hs-578T; 41.8 µM (inactive) in the experiment on MCF7; 23.9 µM (inactive) with HL-60; 23.1 µM (inactive) with LOX IMVI; 19.8 µM (inactive) with RXF 393. Also, the GI50 in the experiment on NCI/ADR-RES was 44.4 µM (inactive); in the experiment with SK-MEL-2, > 100 µM (inactive); with SK-OV-3 it was > 100 µM (inactive); in the experiment on EKVX, 44.7 µM (inactive); in the experiment with SNB-19 it was 68.1 µM (inactive); with OVCAR-5, > 100 µM (inactive). The GI50 in the experiment on T47D is 25.4 µM (inactive).
For `COC(=O)c1c(O)ccc2c1c1c(n2Cc2ccccc2OC)C(=O)c2ccccc2C1`, the GI50 in the experiment on 786-0 is 78.9 µM (inactive); with KM12, 93.5 µM (inactive); in the experiment with SK-MEL-5 it was 55.6 µM (inactive); with A549, 49.1 µM (inactive); in the experiment on SR, 77.3 µM (inactive); in the experiment on UACC-62, 76.4 µM (inactive). The GI50 was > 100 µM (inactive) in the experiment with DU-145; > 100 µM (inactive) in the experiment with Hs-578T; 23.7 µM (inactive) in the experiment with MCF7; > 100 µM (inactive) with HL-60; 47.2 µM (inactive) in the experiment on LOX IMVI; 26.5 µM (inactive) with RXF 393. Moreover, the GI50 with NCI/ADR-RES was 29.3 µM (inactive); with IGROV-1, 63.1 µM (inactive); in the experiment on SK-MEL-2, 87.5 µM (inactive); with SK-OV-3 it was 78.5 µM (inactive); in the experiment on SNB-19, > 100 µM (inactive); in the experiment on T47D it was 81.3 µM (inactive).
For `O=C1CSC(c2cccc(Oc3ccccc3)c2)N1c1cc(Cl)ccc1Cl` (stereo not drawn), the GI50 was 18.2 µM (inactive) in the experiment with 786-0; 26.4 µM (inactive) in the experiment with KM12; 16.5 µM (inactive) in the experiment with SK-MEL-5; 48 µM (inactive) in the experiment with A549; 14.9 µM (inactive) in the experiment on SR; 16 µM (inactive) in the experiment on UACC-62. For the same compound, the GI50 in the experiment with DU-145 is 35.2 µM (inactive); in the experiment with Hs-578T, 29.7 µM (inactive); in the experiment with MCF7 it was 6.3 µM (inactive); in the experiment on HL-60, 27.3 µM (inactive); in the experiment with LOX IMVI, 20 µM (inactive); with RXF 393, 18.5 µM (inactive). Besides, the GI50 in the experiment with NCI/ADR-RES was 29.2 µM (inactive); with SK-MEL-2, 18.7 µM (inactive); with SK-OV-3, 39.8 µM (inactive); with EKVX, 26.1 µM (inactive); in the experiment with SNB-19, 22.8 µM (inactive); with OVCAR-5 it was 27.7 µM (inactive). For the same compound, in the experiment on T47D, the GI50 is 21.7 µM (inactive).
